# What was measured:
# [1] = Thioflavin-T kinetics and TEM of amyloid formation by IAPP peptides; type: physicochemical; settings: wild type IAPP under the conditions described
# Description: Thioflavin-T fluorescence was used to monitor the time course of h-IAPP amyloid formation in the presence and absence of sRAGE. To identify which form(s) of h-IAPP interact with RAGE, sRAGE was added to h-IAPP at various time points during the h-IAPP amyloid formation reaction. Aliquots of the reaction mixture were analyzed by adding 100 uL aliquots of the amyloid formation reaction to 96-well plates containing 8 uL of 60 uM thioflavin-T solution at various incubation times after initiation of the amyloid formation reaction. Fluorescence was measured using a Beckman Coulter DTX880 fluorescent plate reader (excitation: 445 nm and emission: 485 nm). Final solution conditions contained 16 mM tris HCl and […] thioflavin-T (pH 7.4). […] All values represent means±SEM (n=3).
# Transient kinetic species of h-IAPP were characterized by TEM. TEM images confirm the presence or absence of amyloid which were indicated by thioflavin-T fluorescence. Aliquots (4 μl) were removed from the reaction mixtures monitored by thioflavin-T assays, placed on a carbon-coated 200-mesh copper grid and negatively stained with saturated uranyl acetate. The samples were imaged with a Philips CM12 transmission electron microscope at the New York University electron microscopy core facility. Final solution conditions contained 16 mM tris HCl (pH 7.4).
# sRAGE [2] = biological target: T1, sRAGE (Homo sapiens, UniProt Q15109); assay: Surface plasmon resonance binding to immobilized sRAGE; settings: 20 μM h-IAPP
# T1 construct: the soluble extracellular domain of RAGE (sRAGE); made in house; host or cells: Sf9 insect cells (baculovirus)
# T1 sequence (Q15109 23-342): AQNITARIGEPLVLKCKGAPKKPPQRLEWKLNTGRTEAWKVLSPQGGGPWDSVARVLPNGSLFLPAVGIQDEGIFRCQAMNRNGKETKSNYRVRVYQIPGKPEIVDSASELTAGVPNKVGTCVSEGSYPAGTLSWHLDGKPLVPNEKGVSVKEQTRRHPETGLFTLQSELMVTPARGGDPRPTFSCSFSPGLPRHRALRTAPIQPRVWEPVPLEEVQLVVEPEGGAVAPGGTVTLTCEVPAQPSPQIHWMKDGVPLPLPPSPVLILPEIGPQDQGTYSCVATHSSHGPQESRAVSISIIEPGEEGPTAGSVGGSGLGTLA
# Description: A 20 μM h-IAPP solution was prepared in 16 mM tris HCl buffer (pH 7.4) and aliquots of the reaction were analyzed for binding at various incubation times after peptide dissolution. All SPR binding experiments were carried out on a GE Healthcare SPR instrument in the laboratory of Dr. Donald Landry at Columbia University Medical Center.
# sRAGE [3] = biological target: T1, sRAGE; assay: Tryptophan fluorescence quenching assay of sRAGE binding; settings: sRAGE added at different time points of the reaction, 1:1 molar ratio
# Text: The quenching of tryptophan fluorescence indicates binding. Fluorescence measurements were made at right angle in a […] dual path length quartz cuvette, using a Photon Technology International fluorescent spectrometer (280 nm excitation and 350 nm emission). Background fluorescence from buffer and IAPP peptides were negligible. The fluorescence quantum yield reported for each time point is an average of 20 reads over 20 seconds (2.5 nm bandwidth and 1 second integration time). Final solution conditions contained 16 mM tris HCl (pH 7.4).
# mouse pancreatic islets = assay: AlamarBlue cell viability assay of pancreatic islets; type: cell-based; settings: FVB
# [4] = tested on: mouse aortic smooth muscle cells; assay: AlamarBlue cell viability assay of aortic smooth muscle cells; type: cell-based
# Description: Mouse vascular SMCs were cultured from the aortas of 10-week-old male mice using a modification of the procedure of Tarvo and Barret. See Tarvo et al. Blood Vessels. 1980; 17:110-116. SMCs were cultured following an explant protocol in accordance with institutional guidelines. […] Cyto-toxicity was measured by AlamarBlue assay. INS-1 β-cells were seeded at a density of 30,000 cells per well in 96-well plates and cultured for 24 hours prior to stimulation with IAPP. Human and rat IAPP were dissolved and incubated in 16 mM tris HCl (pH 7.4, 25° C.) prior to cell stimulation. AlamarBlue was diluted ten-fold in culture media and cells were incubated for 5 hours at 37° C. Fluorescence (excitation 530; emission 590 nm) was measured on a Beckman Coulter DTX880 fluorescent plate reader. Values calculated were relative to those of control cells treated with buffer only. All values represent means±SEM (n=3).
# [5] = type: physicochemical
# Description: We recorded 2D-IR spectra of the intermediate species. The results are consistent with a lack of beta sheet structure and support the CD data (FIG. 4B). […] Samples of h-IAPP intermediates and h-IAPP amyloid fibrils were pelleted at 20,000 G for 20 minutes and the amount of soluble peptide remaining in the supernatant was measured. […] Characterization of the species in the supernatant and resuspended pellet by thioflavin-T and TEM, before addition of the solutions to cultured cells, confirm the absence of amyloid in the soluble phase and the presence of amyloid in the resuspended pellet. […] ANS is a small hydrophobic dye which has been widely used in protein folding studies. It typically binds to partially structured states which are rich in secondary structure, compact, but which have not yet established the final tertiary structure. […] The dye did bind to the final amyloid fibrils; an effect that is mediated in part by electrostatic interactions. A set of p-cyano-phenylalanine (p-cyanoPhe) analogs of h-IAPP were examined to probe further the nature of the toxic intermediate species. h-IAPP contains two phenylalanines at positions 15 and 23 and a single tyrosine located at the C-terminus. A set of three analogs were prepared in which one aromatic residue was replaced by p-cyanoPhe. […] It can also be quenched via FRET to tyrosine. p-CyanoPhe fluorescence is high for unaggregated IAPP and is quenched in the amyloid fibers. The intermediate species have high p-cyanoPhe fluorescence intensity and the value is the same as that of freshly dissolved material.
# ANS binding assay = type: physicochemical; settings: 10 μM ANS, pH 7.4
# Description: 8-Anilinonaphthalenesulfonic Acid (ANS) is a small hydrophobic dye which is been widely used in protein folding studies. It typically binds to partially structured states which are rich in secondary structure, compact, but which have not yet established the final tertiary structure, thus this dye can be used to detect a molten globule-like character of proteins. Fluorescence spectra of ANS-peptide complexes were measured using a Spex Fluorolog fluorimeter at 25 C (370 nm excitation and 460 nm emission). ANS-peptide complexes were monitored by adding aliquots of human IAPP to a 1 cm cuvette containing 10 μM ANS at various times along the amyloid formation reaction. Final solution conditions contained 16 mM tris HCl and 10 μM ANS (pH 7.4). […] All values represent means±SEM (n=3).
# [6] = Far-UV CD of h-IAPP species; type: physicochemical; settings: at time points of toxicity
# Description: CD measurements of IAPP, sRAGE and IAPP/sRAGE reactions were taken at various incubation times. Far-UV CD experiments monitor the development of secondary structure of h-IAPP species and give insight into the conformational requirement for IAPP/RAGE-binding. All CD experiments were performed on an Applied Photophysics circular dichroism spectrophotometer by directly transferring 300 μL of peptide solution from kinetic assays into a 0.1 cm quartz cuvette a few minutes prior to data collection. The CD spectra for sRAGE and tris HCl buffer was subtracted from all RAGE/IAPP mixtures. The final far-UV CD data was collected over the range of 190 to 260 nm. Final solution conditions contained 16 mM tris HCl (pH 7.4).
smiles,measurement,setting,value
"CC[C@H](C)[C@H](NC(=O)[C@H](C)NC(=O)CNC(=O)[C@H](Cc1ccccc1)NC(=O)[C@H](CC(N)=O)NC(=O)[C@H](CC(N)=O)NC(=O)[C@H](CO)NC(=O)[C@H](CO)NC(=O)[C@H](Cc1c[nH]cn1)NC(=O)[C@@H](NC(=O)[C@H](CC(C)C)NC(=O)[C@H](Cc1ccccc1)NC(=O)[C@H](CC(N)=O)NC(=O)[C@H](C)NC(=O)[C@H](CC(C)C)NC(=O)[C@H](CCCNC(=N)N)NC(=O)[C@H](CCC(N)=O)NC(=O)[C@@H](NC(=O)[C@H](C)NC(=O)[C@@H]1CSSC[C@H](NC(=O)[C@@H](N)CCCCN)C(=O)N[C@@H](CC(N)=O)C(=O)N[C@@H]([C@@H](C)O)C(=O)N[C@@H](C)C(=O)N[C@@H]([C@@H](C)O)C(=O)N1)[C@@H](C)O)C(C)C)C(=O)N[C@@H](CC(C)C)C(=O)N[C@@H](CO)C(=O)N[C@@H](CO)C(=O)N[C@H](C(=O)N[C@@H](CC(N)=O)C(=O)N[C@H](C(=O)NCC(=O)N[C@@H](CO)C(=O)N[C@@H](CC(N)=O)C(=O)N[C@H](C(=O)N[C@@H](Cc1ccc(O)cc1)C(N)=O)[C@@H](C)O)C(C)C)[C@@H](C)O [h-IAPP, human islet amyloid polypeptide]",time at which the amyloid formation reaction reaches saturation,[1],about 40 hrs
same,RAGE binding of transiently populated intermediates (SPR),sRAGE [2]; intermediates,binds transiently populated intermediates
same,RAGE binding of monomers or amyloid fibrils (SPR),sRAGE [2]; monomers or amyloid fibrils,does not bind to h-IAPP monomers or amyloid fibrils
same,binding to sRAGE (tryptophan fluorescence quenching),sRAGE [3],wave of fluorescence quenching
same,loss in viability relative to buffer treatment alone,mouse pancreatic islets,50%
same,toxicity to smooth muscle cells,[4]; h-IAPP intermediates,toxic to smooth muscle cells
same,toxicity to RAGE-null versus wild type SMCs,[4]; increasing amounts of h-IAPP toxic species,genetic deletion of RAGE protects SMCs from h-IAPP toxicity compared to WT SMCs
same,protein pelleted,[5],6.5%
same,solubility of toxic oligomers (centrifugation),[5],soluble and cannot be pelleted
same,solubility of toxic species (ultracentrifugation),[5],soluble
same,protein remained in solution,[5]; 20 min,93.5%
same,ANS binding to final amyloid fibrils,ANS binding assay,did bind
same,ANS binding to monomeric form and intermediates,ANS binding assay,No ANS binding was observed
same,secondary structure (far UV CD),[6],"some partial helical structure, but no beta sheet structure"
